Assays:
[1] = test system: PNMT; assay: In vivo conversion of 3H-norepinephrine into 3H-epinephrine in rat adrenals after oral dosing (PNMT inhibition); conditions: rats, 50 mg./kg. three times over 24 hours, tracer 3H-norepinephrine i.v. (tail vein) one hour after last dose, adrenals assayed 45 min later, active if p<0.05
Source text: One hour after the last dose the rats are given a tracer dose of ^3 H-norepinephrine into a tail vein. Forty-five minutes later they are sacrificed by decapitation and the adrenals assayed for ^3 H-epinephrine and ^3 H-norepinephrine.

[2] = target: T1, phenylethanolamine N-methyltransferase (Oryctolagus cuniculus, UniProt G1TT82); assay: In vitro inhibition of phenylethanolamine N-methyltransferase (Pendleton and Snow procedure); type: biochemical; conditions: for In Vitro Inhibition % at 10^-4: compound concentration 10^-4; for inhibition at 1 µM: compound concentration 10^-6M
T1 construct: from tissue
T1 sequence (G1TT82 1-286): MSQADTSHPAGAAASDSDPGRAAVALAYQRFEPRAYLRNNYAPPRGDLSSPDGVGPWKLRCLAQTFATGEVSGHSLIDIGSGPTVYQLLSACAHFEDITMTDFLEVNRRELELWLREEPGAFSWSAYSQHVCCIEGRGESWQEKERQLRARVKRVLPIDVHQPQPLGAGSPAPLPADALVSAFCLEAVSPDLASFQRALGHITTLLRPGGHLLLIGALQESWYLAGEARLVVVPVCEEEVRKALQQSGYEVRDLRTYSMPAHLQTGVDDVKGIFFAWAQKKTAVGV
Source text: For example, following are in vitro results obtained from testing several compounds present in the pharmaceutical compositions and methods of this invention.

| SMILES | inhibition of the conversion of radioactive norepinephrine into epinephrine [1] | In Vitro Inhibition % at 10^-4 [2] [%] | inhibition at 1 µM [2] [%] |
| --- | --- | --- | --- |
| NC1Cc2ccc(S(N)(=O)=O)cc2C1 (stereo not shown) [5-sulfamoyl-2-aminoindane, 5-sulfamyl-2-indanamine] | significantly inhibited this conversion (p<0.01) |  |  |
| NC1Cc2ccc(Br)cc2C1 (stereo not shown) [compound 85347] |  | 96 | 33 |
| NC1Cc2ccc([N+](=O)[O-])cc2C1 (stereo not shown) [compound 85391] |  | 96 | 23 |
| NC1Cc2ccc(Cl)cc2C1 (stereo not shown) [compound 85506] |  | 96 | 37 |
